According to ChEMBL document CHEMBL1201862, “PubChem BioAssay data set” (2004):
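In this assay, cells in 96-well plates receive the compound at five concentrations for 48 hours. Endpoints are linearly interpolated between the surrounding concentrations. The concentration for 50% growth inhibition is given as GI50.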 The source made the active and inactive calls. No stated cut-off is given here; in the data, active = GI50 up to about 1.1 µM and inactive = higher.

How the values were obtained:
Test in all cases: DTP human tumour cell line panel, 48 h
[1] = test system: SNB-75
[2] = test system: HOP-92
[3] = test system: SF-295
[4] = test system: Malme-3M
[5] = test system: IGROV-1
[6] = test system: M14
[7] = test system: SNB-19
[8] = test system: OVCAR-5
[9] = test system: SN12C
[10] = test system: TK-10
[11] = test system: HCT-15
[12] = test system: HOP-62
[13] = test system: NCI-H226
[14] = test system: 786-0
[15] = test system: A498
[16] = test system: PC-3
[17] = test system: NCI/ADR-RES
[18] = test system: SF-539
[19] = test system: KM12
[20] = test system: OVCAR-3
[21] = test system: Hs-578T
[22] = test system: MDA-MB-231
[23] = test system: EKVX
[24] = test system: MDA-N
[25] = test system: UO-31
[26] = test system: HCC 2998
[27] = test system: ACHN
[28] = test system: CCRF-CEM
[29] = test system: SR
[30] = test system: SK-MEL-2
[31] = test system: OVCAR-4
[32] = test system: COLO 205
[33] = test system: K562
[34] = test system: HL-60
[35] = test system: SK-MEL-28
[36] = test system: A549
[37] = test system: LOX IMVI
[38] = test system: HT-29
[39] = test system: OVCAR-8
[40] = test system: CAKI-1
[41] = test system: NCI-H23
[42] = test system: U-251
[43] = test system: SK-MEL-5
[44] = test system: RXF 393
[45] = test system: SW-620
[46] = test system: BT-549
[47] = test system: NCI-H460
[48] = test system: UACC-62
[49] = test system: MCF7
[50] = test system: HCT-116
[51] = test system: UACC-257
[52] = test system: SK-OV-3
[53] = test system: MOLT-4

Compound: CC(C)n1c(=O)n(-c2ccccc2)n(C(C)(C)C)c1=O
- GI50 [1]: > 100 µM (inactive)
- GI50 [2]: > 100 µM (inactive)
- GI50 [3]: > 100 µM (inactive)
- GI50 [4]: > 100 µM (inactive)
- GI50 [5]: > 100 µM (inactive)
- GI50 [6]: > 100 µM (inactive)
- GI50 [7]: > 100 µM (inactive)
- GI50 [8]: > 100 µM (inactive)
- GI50 [9]: > 100 µM (inactive)
- GI50 [10]: > 100 µM (inactive)
- GI50 [11]: > 100 µM
- GI50 [12]: > 100 µM (inactive)
- GI50 [13]: > 100 µM (inactive)
- GI50 [14]: > 100 µM (inactive)
- GI50 [15]: > 100 µM (inactive)
- GI50 [16]: > 100 µM (inactive)
- GI50 [17]: > 100 µM (inactive)
- GI50 [18]: > 100 µM (inactive)
- GI50 [19]: > 100 µM (inactive)
- GI50 [20]: > 100 µM (inactive)
- GI50 [21]: > 100 µM (inactive)
- GI50 [22]: > 100 µM (inactive)
- GI50 [23]: > 100 µM (inactive)
- GI50 [24]: > 100 µM (inactive)
- GI50 [25]: > 100 µM (inactive)
- GI50 [26]: > 100 µM (inactive)
- GI50 [27]: > 100 µM (inactive)
- GI50 [28]: > 100 µM (inactive)
- GI50 [29]: 58.5 µM (inactive)
- GI50 [30]: > 100 µM (inactive)
- GI50 [31]: > 100 µM (inactive)
- GI50 [32]: > 100 µM (inactive)
- GI50 [33]: > 100 µM (inactive)
- GI50 [34]: 47.4 µM (inactive)
- GI50 [35]: > 100 µM (inactive)
- GI50 [36]: > 100 µM (inactive)
- GI50 [37]: > 100 µM (inactive)
- GI50 [38]: > 100 µM (inactive)
- GI50 [39]: > 100 µM (inactive)
- GI50 [40]: > 100 µM (inactive)
- GI50 [41]: 83.2 µM (inactive)
- GI50 [42]: > 100 µM (inactive)
- GI50 [43]: > 100 µM (inactive)
- GI50 [44]: > 100 µM (inactive)
- GI50 [45]: > 100 µM (inactive)
- GI50 [46]: > 100 µM (inactive)
- GI50 [47]: > 100 µM (inactive)
- GI50 [48]: > 100 µM (inactive)
- GI50 [49]: > 100 µM (inactive)
- GI50 [50]: > 100 µM (inactive)
- GI50 [51]: > 100 µM (inactive)
- GI50 [52]: > 100 µM (inactive)
- GI50 [53]: > 100 µM (inactive)
